Legend:
[1] = target: T1, human MCH 1 receptor (hMCH1R) (Homo sapiens, UniProt Q99705); test: Ligand binding assay (125I native-MCH), hMCH; conditions: hMCH1R expressed in HEK 293, membranes, 0.2 nM 125I native-MCH
T1 construct: expressed in transfected cells; host or cells: HEK 293 (membrane preparation)
Procedure: (§1) Human embryonic kidney cells (293 total) expressing either human, rat, or mouse MCH receptor were harvested from 150 mm culture dishes using PBS. Spinning at 1500 rpm for 2 minutes initially pelleted cells. The resulting pellet was then homogenized in 15 mL ice cold sucrose buffer (25 mM HEPES, 0.3 M sucrose, pH 7.4) with a motorized, glass fitted, Teflon® homogenizer. The homogenate was centrifuged at 48,000×g at 4° C. for 10 minutes, resuspended in 15 mL assay buffer (25 mM HEPES, 10 mM MgCl2, 0.2% BSA, 0.1 mg/mL STI, 0.1 mg/mL Pefabloc®, 1 μM Phosphoramidon, pH 7.4) with a Tissue-Tearor® (Biospec Products) and centrifuged again at 48,000×g for 10 minutes. The pellet was homogenized for a third time in 15 mL assay buffer using the Tissue-Tearor® and again centrifuged at 48,000×g for 10 minutes. The resulting pellet was resuspended in assay buffer at a wet weight concentration of 10-20 mg/mL.
(§2) Binding assays were determined as described below using mouse, rat or human MCH 1 receptors (mMCH1R, rMCH1R, and hMCH1R, respectively) expressed in HEK 293; IC50 values were calculated.
(§3) Binding assays were performed in 96-well U-bottom plates. Membranes (100 μg tissue) were incubated at 30° C. for 90 minutes in assay buffer with various peptides in the presence of 0.2 nM 125I native-MCH (Perkin-Elmer Life Sciences, Boston, Mass.) in 100 μL total volume. Non-specific binding was assessed in the presence of 1 μM cold native-MCH. The reaction was terminated by rapid filtration through Unfilter-96 GF/C glass fiber filter plates (FilterMate® 196 Harvester, Packard Instrument Co., Meriden, Conn.) pre-soaked in PBS/0.5% BSA, followed by three washes with 300 μL ice-cold water. Bound radioactivity was determined using a TopCount® microplate scintillation and luminescence counter (Packard Instrument Co., Meriden, Conn.). Nonlinear regression analyses of drug concentration curves were performed using GraphPad Prism® (GraphPad Software, Inc., San Diego, Calif.).

[2] = target: T2, rat MCH 1 receptor (rMCH1R) (Rattus norvegicus, UniProt P97639); test: Ligand binding assay (125I native-MCH), rMCH; conditions: rMCH1R expressed in HEK 293, membranes, 0.2 nM 125I native-MCH
T2 construct: expressed in transfected cells; host or cells: HEK 293 (membrane preparation)
Procedure: as §1, §2, §3

human MCH receptor = target: T3, human MCH receptor (Homo sapiens, UniProt Q99705); test: hMCH FLIPR calcium mobilization functional assay; assay type: cell-based
T3 construct: expressed in transfected cells

rat MCH1 receptor = target: T4, rat MCH1 receptor (Rattus norvegicus, UniProt P97639); test: rMCH FLIPR calcium mobilization functional assay; assay type: cell-based; conditions: CHOK1-Gqi cells
T4 construct: expressed in transfected cells
Procedure: Pharmacological analyses were conducted using either a HT-PS100 device (Axiom Biotechnologies, San Diego, Calif.), which provides high-resolution dose-response fluorometric measurements of [Ca^++]i mobilization, or using a FLIPR® device (Molecular Devices, Sunnyvale, Calif.).
Materials: Pharmacological analysis was conducted using a FLIPR® device (Molecular Devices, Sunnyvale, Calif.). CHOK1-Gqi cells were stably transfected with the rat MCH1 receptor and maintained under G418 antibiotic pressure. FLIPR® assay buffer consisted of phenol red-free DMEM+2.5 mM probenecid. MCH peptide (Amgen, Inc.) was reconstituted in assay buffer and served as the positive agonist control for all experiments. Test compounds were prepared as 10 mM stocks in 100% DMSO and diluted to a top end working concentration of 10 μM in 96 well black, flat bottom, collagen-I coated plates (Becton Dickinson, Bedford, Mass.).
Methods: CHOK1-Gqi cells stably expressing MCH1R were maintained in Dulbeco's modified Eagle's medium (GIBCO/Life Technologies, Rockville, Md.) supplemented with 2 mM glutamine and 10% dialyzed fetal bovine serum (HyClone, Logan, Utah) at 37° C., 5% CO2. Cells were harvested by 10′ treatment with Versene (GIBCO/Life Technologies) followed by trituration, washing twice with cold (4° C.) hybridoma medium (Serum/Protein free, with L-glutamine, sodium bicarbonate, MOPS buffer) (Sigma-Aldrich Corp, St. Louis, Mo.) and replated onto 96 well black, flat bottom, collagen-I coated plates to a density of 10,000 cells/well. The cells were then loaded with the fluorescent calcium indicator Fura-2 (Molecular Probes, Eugene, Oreg.) at 1.6 μM for 60′ at room temperature. The loaded cells were then washed twice with 90 μl/well of wash buffer (1×HBSS, 20 mM HEPES, 2.5 mM probenecid).
Receptor-stimulated intracellular calcium responses were detected using FLIPR® by monitoring increases in the Fura-2 fluorescence response.
Test compounds were screened for MCH1R activity in the FLIPR® for both agonist and antagonist action. Agonist mode challenges were conducted at a maximum gradient concentration of 1 μM. Antagonist activity was tested by 10 min pre-incubation of cells at a compound concentration of defined to be 300× the EC50 of MCH (typically 1 μM), with subsequent introduction of MCH at a concentration 5-fold of EC50 as determined in preliminary experiments.
Schild experiments were conducted on the FLIPR® for selected compounds by co-administering antagonist compounds together with MCH peptide. Several fixed concentrations of antagonist compounds were prepared in 10-fold increments, and presented to the cells in a gradient of increasing MCH concentration. Values for compound pA2 were calculated by linear regression of MCH EC50s as a function of antagonist concentration.

T2 sequence (P97639 whole entry): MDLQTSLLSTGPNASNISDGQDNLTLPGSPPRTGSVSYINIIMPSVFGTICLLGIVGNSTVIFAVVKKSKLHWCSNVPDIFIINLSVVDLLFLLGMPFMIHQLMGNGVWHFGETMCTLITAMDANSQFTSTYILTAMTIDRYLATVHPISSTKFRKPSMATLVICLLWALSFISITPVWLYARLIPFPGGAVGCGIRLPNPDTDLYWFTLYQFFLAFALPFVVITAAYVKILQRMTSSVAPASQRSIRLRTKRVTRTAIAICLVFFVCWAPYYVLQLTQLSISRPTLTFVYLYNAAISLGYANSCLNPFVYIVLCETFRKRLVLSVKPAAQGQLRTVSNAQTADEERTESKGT
T4 sequence (P97639 whole entry): as above
T1 sequence (Q99705 whole entry): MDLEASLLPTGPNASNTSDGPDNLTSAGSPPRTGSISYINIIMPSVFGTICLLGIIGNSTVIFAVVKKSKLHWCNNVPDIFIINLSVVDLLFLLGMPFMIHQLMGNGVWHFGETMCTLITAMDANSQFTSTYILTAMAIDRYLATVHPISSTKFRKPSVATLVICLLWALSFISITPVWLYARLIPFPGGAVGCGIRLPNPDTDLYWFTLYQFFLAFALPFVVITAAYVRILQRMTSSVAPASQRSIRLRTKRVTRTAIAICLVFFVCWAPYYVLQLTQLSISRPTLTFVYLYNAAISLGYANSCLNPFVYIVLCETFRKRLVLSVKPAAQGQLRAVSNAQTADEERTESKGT
T3 sequence (Q99705 whole entry): as above

Row | IC50 ([1]; threshold 100 μM or less) [µM] | IC50 ([2]; threshold 100 μM or less) [µM] | Ki (human MCH receptor; threshold 100 μM or less) [µM] | Ki (rat MCH1 receptor; threshold 100 μM or less) [µM] | IC50 ([1]; threshold 100 nM or less) [µM] | IC50 ([2]; threshold 100 nM or less) [µM] | Ki (human MCH receptor; threshold 100 nM or less) [µM] | Ki (rat MCH1 receptor; threshold 100 nM or less) [µM] | SMILES
1 | ≤ 100 | ≤ 100 | ≤ 100 | ≤ 100 |  |  |  |  | Cc1ccc(Oc2ccc(CNCCN3CCCC3)cc2NC(=O)Nc2cccc(F)c2)cc1C [Compound 64, 1-{2-(3,4-dimethylphenoxy)-5-[(2-pyrrolidin-1-yl-ethylamino)-methyl]phenyl}-3-(3-fluorophenyl)urea]
2 | ≤ 100 | ≤ 100 | ≤ 100 | ≤ 100 | ≤ 0.1 | ≤ 0.1 | ≤ 0.1 | ≤ 0.1 | Cc1ccc(Oc2ccc(C(=O)NCCN3CCCC3)cc2NC(=O)Nc2ccccc2Cl)cc1C [Compound 41, 3-[3-(2-chlorophenyl)ureido]-4-(3,4-dimethylphenoxy)-N-(2-pyrrolidin-1-yl-ethyl)benzamide]
3 | ≤ 100 | ≤ 100 | ≤ 100 | ≤ 100 | ≤ 0.1 |  | ≤ 0.1 |  | Cc1ccc(Oc2ccc(C(=O)NCCN3CCCC3)cc2NC(=O)Nc2ccc(C(C)C)cc2)cc1C [Compound 34, 4-(3,4-dimethylphenoxy)-3-[3-(4-isopropylphenyl)ureido]-N-(2-pyrrolidin-1-yl-ethyl)benzamide]
4 | ≤ 100 | ≤ 100 | ≤ 100 | ≤ 100 | ≤ 0.1 |  |  |  | Cc1ccc(Oc2ccc(C(=O)NCCN3CCCC3)cc2NC(=O)Nc2cccc3ccccc23)cc1C [Compound 36, 4-(3,4-dimethylphenoxy)-3-(3-naphthalen-1-yl-ureido)-N-(2-pyrrolidin-1-yl-ethyl)benzamide]
5 | ≤ 100 | ≤ 100 | ≤ 100 | ≤ 100 | ≤ 0.1 | ≤ 0.1 |  |  | Cc1ccc(Oc2ccc(C(=O)NCCN3CCCC3)cc2NC(=O)Nc2cc(F)cc(F)c2)cc1C [Compound 58, 3-[3-(3,5-difluorophenyl)ureido]-4-(3,4-dimethylphenoxy)-N-(2-pyrrolidin-1-yl-ethyl)benzamide]
6 | ≤ 100 |  | ≤ 100 | ≤ 100 | ≤ 0.1 |  | ≤ 0.1 | ≤ 0.1 | Cc1ccc(Oc2ccc(C(=O)NCCN3CCCC3)cc2NC(=O)NCc2ccccc2)cc1C [Compound 6, 4-[(3,4-dimethylphenyl)oxy]-3-({[(phenylmethyl)amino]carbonyl}amino)-N-(2-(1-pyrrolidinyl)ethyl)benzamide]
7 | ≤ 100 | ≤ 100 | ≤ 100 | ≤ 100 | ≤ 0.1 | ≤ 0.1 |  |  | Cc1ccc(Oc2ccc(C(=O)NCCN3CCCC3)cc2NC(=O)Nc2cc(Cl)cc(Cl)c2)cc1C [Compound 59, 3-[3-(3,5-dichlorophenyl)ureido]-4-(3,4-dimethylphenoxy)-N-(2-pyrrolidin-1-yl-ethyl)benzamide]
8 | ≤ 100 |  | ≤ 100 | ≤ 100 |  |  |  |  | Cc1ccc(Oc2ccc(C(=O)NCCN3CCCC3)cc2NC(=O)CCc2ccccc2)cc1C [Compound 5, 4-[(3,4-dimethylphenyl)oxy]-3-[(3-phenylpropanoyl)amino]-N-(2-(1-pyrrolidinyl)ethyl)benzamide]
9 |  | ≤ 100 | ≤ 100 | ≤ 100 |  | ≤ 0.1 | ≤ 0.1 |  | Cc1cc(Oc2ccc(C(=O)NCCN3CCCC3)cc2NC(=O)Nc2cccc(F)c2)ccc1F [Compound 51, 4-(4-fluoro-3-methylphenoxy)-3-[3-(3-fluorophenyl)ureido]-N-(2-pyrrolidin-1-yl-ethyl)benzamide]
10 | ≤ 100 | ≤ 100 | ≤ 100 | ≤ 100 | ≤ 0.1 | ≤ 0.1 | ≤ 0.1 | ≤ 0.1 | COc1cccc(NC(=O)Nc2cc(C(=O)NCCN3CCCC3)ccc2Oc2ccc(C)c(C)c2)c1 [Compound 40, 4-(3,4-dimethylphenoxy)-3-[3-(3-methoxyphenyl)ureido]-N-(2-pyrrolidin-1-yl-ethyl)benzamide]
11 |  | ≤ 100 | ≤ 100 | ≤ 100 |  | ≤ 0.1 | ≤ 0.1 |  | Cc1ccc(Oc2ccc(C(=O)NCCN3CCCC3)cc2NC(=O)Nc2cccc(F)c2)cc1 [Compound 56, 3-[3-(3-fluorophenyl)ureido]-N-(2-pyrrolidin-1-yl-ethyl)-4-p-tolyloxybenzamide]
12 | ≤ 100 | ≤ 100 | ≤ 100 | ≤ 100 | ≤ 0.1 | ≤ 0.1 | ≤ 0.1 | ≤ 0.1 | Cc1ccc(Oc2ccc(C(=O)NCCN3CCCC3)cc2NC(=O)Nc2ccccc2)cc1C [Compound 1, 4-[(3,4-dimethylphenyl)oxy]-3-{[(phenylamino)carbonyl]amino}-N-(2-(1-pyrrolidinyl)ethyl)benzamide]
13 |  | ≤ 100 | ≤ 100 | ≤ 100 |  | ≤ 0.1 | ≤ 0.1 |  | Cc1cccc(Oc2ccc(C(=O)NCCN3CCCC3)cc2NC(=O)Nc2cccc(F)c2)c1 [Compound 57]
14 |  | ≤ 100 | ≤ 100 | ≤ 100 |  | ≤ 0.1 |  |  | O=C(Nc1cccc(F)c1)Nc1cc(C(=O)NCCN2CCCC2)ccc1Oc1ccc(F)cc1 [Compound 54, 4-(4-fluorophenoxy)-3-[3-(3-fluorophenyl)ureido]-N-(2-pyrrolidin-1-yl-ethyl)benzamide]
15 | ≤ 100 | ≤ 100 | ≤ 100 | ≤ 100 | ≤ 0.1 | ≤ 0.1 | ≤ 0.1 | ≤ 0.1 | Cc1ccc(Oc2ccc(C(=O)NCCN3CCCC3)cc2NC(=O)Nc2ccc(Br)cc2)cc1C [Compound 38, 3-[3-(4-bromophenyl)ureido]-4-(3,4-dimethylpherioxy)-N-(2-pyrrolidin-1-yl-ethyl)benzamide]
16 |  | ≤ 100 | ≤ 100 | ≤ 100 |  | ≤ 0.1 |  |  | O=C(Nc1cccc(F)c1)Nc1cc(C(=O)NCCN2CCCC2)ccc1Oc1cccc(F)c1 [Compound 55, 4-(3-fluorophenoxy)-3-[3-(3-fluorophenyl)ureido]-N-(2-pyrrolidin-1-yl-ethyl)benzamide]

From patent US20050256161A1, “Melanin concentrating hormone receptor antagonists” (priority 2003, published 2005)
